What was measured:
[1] = molecular target: T1, hFASN enzyme (full length) (Homo sapiens, UniProt P49327); assay: Fatty Acid Synthase (FASN) inhibition scintillation proximity assay; format: biochemical; conditions: for inhibition at 10 µM: read-out: Human FASN % inhibition @ 10 μM, 10 μM test compound; for IC50: read-out: Human FASN pIC50 (converted)
T1 construct: 10 μL hFASN enzyme (full length, 300 ng, purified in house); made in house
Procedure, shortened: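 Proximity read-out: hydrophobic ^3H-palmitate formed from ^3H-acetyl-CoA and malonyl-CoA binds streptavidin imaging beads, imaged at 610±20 nm at least 24 h after stopping. Enzyme was in-house purified full-length hFASN, 300 ng, in pH 7.5 phosphate/DTT buffer; compound series 30 μM down to 0.01 μM, normalized to controls, 4-parameter fit.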

A2780 ovarian cells [2] = assay: A2780 ovarian cell proliferation assay in lipid reduced medium, with palmitate (MTT); format: cell-based; conditions: Homo sapiens, A2780, 96 h; read-out: pIC50 A2780 Ovarian Cell, With Palmitate (converted)
Procedure, shortened: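 In this palmitate-supplemented format, compound dilutions (30 μM down to 0.01 μM) are added to cells in lipid-reduced serum with 25 μM palmitate, 0.2% fatty-acid-free BSA and 0.25% ethanol. After four days (96 h) MTT absorbance at 544 nm is recorded and fitted by minimum sum of squares.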

A2780 ovarian cells [3] = assay: A2780 ovarian cell proliferation assay in lipid reduced medium, without palmitate (MTT); format: cell-based; conditions: Homo sapiens, A2780, 96 h; read-out: pIC50 A2780 Ovarian Cell, Without Palmitate (converted)
[4] = system: LNCaP-Vancouver prostate cells; assay: In vitro LNCaP Vancouver prostate cell proliferation assay in lipid reduced medium; format: cell-based; conditions: read-out: pIC50 LNCaP_Vancouver prostate cell (converted)
[5] = system: PC-3M-Luc-C6 prostate cells; assay: In vitro PC-3M-Luc-C6 prostate cell proliferation assay in lipid reduced medium; format: cell-based; conditions: 96 h, read-out: pIC50 PC-3M-Luc-C6 prostate cell (converted)
[6] = molecular target: Fatty Acid Synthase Keto-reductase Domain (FASN KR) (Homo sapiens, UniProt P49327); assay: Fatty Acid Synthase keto-reductase domain (FASN KR) inhibition, NADPH oxidation at 340 nm
Sequence of Fatty Acid Synthase Keto-reductase Domain (FASN KR) (P49327 whole entry, the tested form may be a part): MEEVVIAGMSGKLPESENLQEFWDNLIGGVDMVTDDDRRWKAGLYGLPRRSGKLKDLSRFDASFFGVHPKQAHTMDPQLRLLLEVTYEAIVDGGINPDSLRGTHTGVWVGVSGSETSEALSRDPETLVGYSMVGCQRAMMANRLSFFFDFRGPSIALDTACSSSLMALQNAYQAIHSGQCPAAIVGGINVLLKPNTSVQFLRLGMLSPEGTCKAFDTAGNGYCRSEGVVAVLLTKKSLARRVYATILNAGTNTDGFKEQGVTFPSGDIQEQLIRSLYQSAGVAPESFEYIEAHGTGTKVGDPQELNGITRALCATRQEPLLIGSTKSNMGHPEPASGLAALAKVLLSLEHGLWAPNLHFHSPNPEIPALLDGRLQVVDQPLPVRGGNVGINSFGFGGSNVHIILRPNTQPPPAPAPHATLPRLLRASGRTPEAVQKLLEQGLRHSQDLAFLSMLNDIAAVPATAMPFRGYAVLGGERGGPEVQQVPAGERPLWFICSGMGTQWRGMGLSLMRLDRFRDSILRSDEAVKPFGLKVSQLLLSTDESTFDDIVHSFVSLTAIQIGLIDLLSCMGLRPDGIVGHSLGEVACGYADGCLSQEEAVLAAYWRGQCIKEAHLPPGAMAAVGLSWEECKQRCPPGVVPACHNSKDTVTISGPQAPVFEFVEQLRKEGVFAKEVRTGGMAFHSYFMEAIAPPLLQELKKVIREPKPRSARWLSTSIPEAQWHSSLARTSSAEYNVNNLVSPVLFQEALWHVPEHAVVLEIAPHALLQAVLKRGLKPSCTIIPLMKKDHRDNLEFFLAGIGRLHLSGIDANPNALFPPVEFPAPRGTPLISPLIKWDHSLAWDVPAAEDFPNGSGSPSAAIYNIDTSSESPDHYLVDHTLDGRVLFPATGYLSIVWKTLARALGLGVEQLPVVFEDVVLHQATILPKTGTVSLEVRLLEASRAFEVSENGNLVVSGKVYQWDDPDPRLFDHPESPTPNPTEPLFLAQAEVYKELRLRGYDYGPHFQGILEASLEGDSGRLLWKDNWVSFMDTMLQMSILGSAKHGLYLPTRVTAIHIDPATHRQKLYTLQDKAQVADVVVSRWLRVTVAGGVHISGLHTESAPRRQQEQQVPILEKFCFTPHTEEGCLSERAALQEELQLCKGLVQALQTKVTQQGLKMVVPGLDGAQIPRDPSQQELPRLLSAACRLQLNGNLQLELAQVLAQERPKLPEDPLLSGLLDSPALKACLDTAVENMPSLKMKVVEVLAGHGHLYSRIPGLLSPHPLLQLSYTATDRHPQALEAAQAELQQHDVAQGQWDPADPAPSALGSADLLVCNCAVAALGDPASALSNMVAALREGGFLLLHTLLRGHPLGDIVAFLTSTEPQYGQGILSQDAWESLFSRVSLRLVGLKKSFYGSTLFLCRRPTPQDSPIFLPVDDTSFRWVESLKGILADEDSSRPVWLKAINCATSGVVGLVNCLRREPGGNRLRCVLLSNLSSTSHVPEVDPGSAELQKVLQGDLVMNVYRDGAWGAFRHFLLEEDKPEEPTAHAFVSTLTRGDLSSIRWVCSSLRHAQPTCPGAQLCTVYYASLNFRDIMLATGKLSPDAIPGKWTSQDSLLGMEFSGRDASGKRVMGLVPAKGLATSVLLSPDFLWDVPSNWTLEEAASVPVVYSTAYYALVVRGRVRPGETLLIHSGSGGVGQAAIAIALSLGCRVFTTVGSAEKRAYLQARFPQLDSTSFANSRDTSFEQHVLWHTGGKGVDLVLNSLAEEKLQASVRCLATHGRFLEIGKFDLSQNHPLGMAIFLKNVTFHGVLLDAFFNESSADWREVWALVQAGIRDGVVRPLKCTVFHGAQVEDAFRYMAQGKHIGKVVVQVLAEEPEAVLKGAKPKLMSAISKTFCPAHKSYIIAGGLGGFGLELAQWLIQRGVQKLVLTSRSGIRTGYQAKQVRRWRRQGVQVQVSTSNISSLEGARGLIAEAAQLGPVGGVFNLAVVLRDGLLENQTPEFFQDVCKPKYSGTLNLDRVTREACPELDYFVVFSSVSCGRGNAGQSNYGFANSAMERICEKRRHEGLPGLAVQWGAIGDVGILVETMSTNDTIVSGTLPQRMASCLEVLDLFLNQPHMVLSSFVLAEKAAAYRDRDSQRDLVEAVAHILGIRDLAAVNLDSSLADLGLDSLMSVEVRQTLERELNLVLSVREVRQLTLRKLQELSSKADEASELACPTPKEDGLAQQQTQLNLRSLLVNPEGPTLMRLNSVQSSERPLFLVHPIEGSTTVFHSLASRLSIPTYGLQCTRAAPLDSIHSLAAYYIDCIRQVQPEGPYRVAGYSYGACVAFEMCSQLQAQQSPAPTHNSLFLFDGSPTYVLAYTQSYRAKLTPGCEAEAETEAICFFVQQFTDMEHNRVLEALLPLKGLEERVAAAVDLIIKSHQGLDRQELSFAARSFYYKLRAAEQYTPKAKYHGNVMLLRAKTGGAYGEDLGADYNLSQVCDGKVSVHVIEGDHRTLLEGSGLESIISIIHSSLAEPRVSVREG
Experimental: After 20 minutes incubation at room temperature the plate was measured again (T2).
The decrease in absorbance was calculated as (Absorbance before incubation T1)−(Absorbance following incubation T2).
A plot of Controlmin versus test compound concentration was fitted to a 4-parameter logistic curve using a non-linear least squares regression method.

T1 sequence (P49327 whole entry): as the sequence (P49327 whole entry, the tested form may be a part) above

Structure (SMILES) | inhibition at 10 µM [1] | IC50 [1] | IC50 (A2780 ovarian cells [2]) | IC50 (A2780 ovarian cells [3]) | IC50 [4] | IC50 [5] | IC50 [6]
Cc1cc(-c2ccc(-c3cnn(C4CC4)c3)cc2)ccc1C1=NC2(CC2)C(=O)N1CC1CN(C(=O)C2(C)CC2)C1 [compound 337, 5-(4′-(1-cyclopropyl-1H-pyrazol-4-yl)-3-methyl-[1,1′-biphenyl]-4-yl)-6-((1-(1-methylcyclopropanecarbonyl)azetidin-3-yl)methyl)-4,6-diazaspiro[2.4]hept-4-en-7-one] | 105% | 36.3 nM | 6920 nM | 38 nM | 79.4 nM | 20.4 nM | 79.4 nM
O=C(C1CC1)N1CC[C@@H](CN2C(=O)C3(CC3)N=C2c2ccc(-c3ccc4sccc4c3)cc2)C1 [compound 298, (R)-5-(4-(benzo[b]thiophen-5-yl)phenyl)-6-((1-(cyclopropanecarbonyl)pyrrolidin-3-yl)methyl)-4,6-diazaspiro[2.4]hept-4-en-7-one] | 100% | 21.9 nM | > 10000 nM | 58.9 nM | 617 nM | 66.1 nM | 26.9 nM
Nc1cccc(-c2ccc(C3=NC4(CC4)C(=O)N3C[C@@H]3CCN(C(=O)C4CC4)C3)cc2)n1 [compound 400, 5-[4-(6-Aminopyridin-2-yl)phenyl]-6-{[(3R)-1-(cyclopropylcarbonyl)pyrrolidin-3-yl]methyl}-4,6-diazaspiro[2.4]hept-4-en-7-one] | 101% | 195 nM | > 6170 nM | 229 nM | 1200 nM | 214 nM | 479 nM
Cc1cc(-c2ccc3c(cnn3C)c2)ccc1C1=NC2(CC2)C(=O)N1CC1CN(C(=O)N(C)C)C1 [compound 488, N,N-Dimethyl-3-({5-[2-methyl-4-(1-methyl-1H-indazol-5-yl)phenyl]-7-oxo-4,6-diazaspiro[2.4]hept-4-en-6-yl}methyl)azetidine-1-carboxamide] | 88% | 214 nM | > 10000 nM | 302 nM | 1550 nM | 575 nM | 501 nM
COc1ccc2cc(-c3ccc(C4=NC5(CC5)C(=O)N4C[C@@H]4CCN(C(=O)C5(O)CC5)C4)cc3)ccc2c1 [compound 203, (R)-6-((1-(1-hydroxycyclopropanecarbonyl)pyrrolidin-3-yl)methyl)-5-(4-(6-methoxynaphthalen-2-yl)phenyl)-4,6-diazaspiro[2.4]hept-4-en-7-one] | 99% | 57.5 nM | > 10000 nM | ~4.57 nM | 21.4 nM | 5.62 nM | 46.8 nM
Cc1cc(-c2ccc(-c3cnn(C)c3)cc2)ccc1C1=NC2(CC2)C(=O)N1C[C@@H]1CCN(C(=O)C2CC2)C1 [compound 316, (R)-6-((1-(cyclopropanecarbonyl)pyrrolidin-3-yl)methyl)-5-(3-methyl-4′-(1-methyl-1H-pyrazol-4-yl)-[1,1′-biphenyl]-4-yl)-4,6-diazaspiro[2.4]hept-4-en-7-one] | 108% | 41.7 nM | > 10000 nM | ~15.8 nM | 102 nM | 19.5 nM | 75.9 nM
Cc1cc(C2=NC3(CC3)C(=O)N2CC2CN(C(=O)C3CC3)C2)ccc1-c1ccc2sccc2c1 [compound 392, 5-[4-(1-Benzothiophen-5-yl)-3-methylphenyl]-6-{[1-(cyclopropylcarbonyl)azetidin-3-yl]methyl}-4,6-diazaspiro[2.4]hept-4-en-7-one] | 91% | 245 nM | > 10000 nM | 2510 nM | ~1700 nM | 1620 nM | 871 nM
Cc1cc2cc(-c3ccc(C4=NC5(CC5)C(=O)N4CC4CN(C(=O)C5(C)CC5)C4)c(F)c3)ccc2s1 [compound 352, 5-(2-fluoro-4-(2-methylbenzo[b]thiophen-5-yl)phenyl)-6-((1-(1-methylcyclopropanecarbonyl)azetidin-3-yl)methyl)-4,6-diazaspiro[2.4]hept-4-en-7-one] | 94% | 74.1 nM | 3020 nM | ~123 nM | 562 nM | 162 nM | 93.3 nM
Cn1ccc2ccc(-c3ccc(C4=NC5(CC5)C(=O)N4CC4CN(C(=O)C5CC5)C4)cc3)cc21 [compound 541, 6-{[1-(Cyclopropylcarbonyl)azetidin-3-yl]methyl}-5-[4-(1-methyl-1H-indol-6-yl)phenyl]-4,6-diazaspiro[2.4]hept-4-en-7-one] | 100% | 110 nM | > 10000 nM | 282 nM | ~1020 nM | 309 nM | 339 nM
COCCN1CCC2(CC1)N=C(c1ccc(-c3ccc4[nH]ccc4c3)cc1)N(C[C@@H]1CCN(C(=O)C3CC3)C1)C2=O [compound 747, 3-{[(3R)-1-(Cyclopropylcarbonyl)pyrrolidin-3-yl]methyl}-2-[4-(1H-indol-5-yl)phenyl]-8-(2-methoxyethyl)-1,3,8-triazaspiro[4.5]dec-1-en-4-one] | 96% | 85.1 nM | > 10000 nM | ~74.1 nM | 631 nM | 57.5 nM | 129 nM
Cc1cc2cc(-c3ccc(C4=NC5(CC5)C(=O)N4C[C@@H]4CCN(C(=O)C5(O)CC5)C4)c(F)c3)ccc2o1 [compound 355, (R)-5-(2-fluoro-4-(2-methylbenzofuran-5-yl)phenyl)-6-((1-(1-hydroxycyclopropanecarbonyl)pyrrolidin-3-yl)methyl)-4,6-diazaspiro[2.4]hept-4-en-7-one] | 96% | 30.2 nM | > 10000 nM | 30.2 nM | 575 nM | 58.9 nM | 42.7 nM
Cc1cc(-c2ccc(C3=NC4(CC4)C(=O)N3CC3CN(C(=O)C4CC4)C3)c(F)c2)cc2cnn(C)c12 [compound 520, 6-{[1-(Cyclopropylcarbonyl)azetidin-3-yl]methyl}-5-[4-(1,7-dimethyl-1H-indazol-5-yl)-2-fluorophenyl]-4,6-diazaspiro[2.4]hept-4-en-7-one] | 97% | 427 nM | > 10000 nM | 389 nM | 2570 nM | 501 nM | 631 nM
O=C(C1CC1)N1CC(CN2C(=O)C3(CC3)N=C2c2ccc(-c3cccc4[nH]ncc34)cc2)C1 [compound 300, 5-(4-(1H-indazol-4-yl)phenyl)-6-((1-(cyclopropanecarbonyl)azetidin-3-yl)methyl)-4,6-diazaspiro[2.4]hept-4-en-7-one] | 102% | 57.5 nM | > 10000 nM | 74.1 nM | 1910 nM | 123 nM | 126 nM
Cc1oc2ccc(-c3ccc(C4=NC5(CC5)C(=O)N4C[C@@H]4CCN(C(=O)C5CC5)C4)cc3F)cc2c1C [compound 399, 6-{[(3R)-1-(Cyclopropylcarbonyl)pyrrolidin-3-yl]methyl}-5-[4-(2,3-dimethyl-1-benzofuran-5-yl)-3-fluorophenyl]-4,6-diazaspiro[2.4]hept-4-en-7-one] | 99% | 363 nM | > 6170 nM | > 6170 nM | > 3020 nM | > 3020 nM | 1320 nM
Cn1nccc1-c1ccc(-c2ccc(C3=NC4(CC4)C(=O)N3C[C@@H]3CCN(C(=O)C4(C)CC4)C3)c(F)c2)cc1 [compound 362] | 96% | 77.6 nM | > 10000 nM | ~42.7 nM | ~295 nM | ~56.2 nM | 126 nM
Cn1ncc2cc(-c3ccc(C4=NC5(CCN(C(=O)C(F)(F)F)CC5)C(=O)N4C[C@@H]4CCN(C(=O)C5CC5)C4)cc3)ccc21 [compound 752, 3-{[(3R)-1-(Cyclopropylcarbonyl)pyrrolidin-3-yl]methyl}-2-[4-(1-methyl-1H-indazol-5-yl)phenyl]-8-(trifluoroacetyl)-1,3,8-triazaspiro[4.5]dec-1-en-4-one] | 91% | 776 nM | > 10000 nM | 1620 nM | 3980 nM | 1910 nM | 1050 nM
O=C(C1CC1)N1CC[C@@H](CN2C(=O)C3(CC3)N=C2c2ccc(-c3cccc(S(=O)(=O)C4CC4)c3)cc2F)C1 [compound 647, 6-{[(3R)-1-(Cyclopropylcarbonyl)pyrrolidin-3-yl]methyl}-5-[3′-(cyclopropylsulfonyl)-3-fluorobiphenyl-4-yl]-4,6-diazaspiro[2.4]hept-4-en-7-one] | 91% | 631 nM | > 10000 nM | 1950 nM | 5130 nM | 1740 nM | 1380 nM

From patent US10077261B2, “Imidazolin-5-one derivative useful as FASN inhibitors for the treatment of cancer” (Janssen Pharmaceutica NV, priority 2012, dated 2018)
